According to ChEMBL document CHEMBL3217429, “Structural studies of Enterococcus faecalis methionine aminopeptidase and design of microbe specific 2,2-bipyridine based inhibitors” (Medchemcomm, 2012):
Calls of active or inactive are those of the source. The rule behind the calls is not given here.

What was measured:
[1] = system: Enterococcus faecalis; assay: (§1) Inhibition of Enterococcus faecalis recombinant type 1 methionine aminopeptidase expressed in Escherichia coli BL21 (DE3) using Met-pNA substrate
[2] = as §1
[3] = system: Enterococcus faecalis; assay: Maximal inhibition of Enterococcus faecalis recombinant type 1 methionine aminopeptidase expressed in Escherichia coli BL21 (DE3) using Met-pNA substrate at 10 uM in presence of CoCl2
[4] = system: Enterococcus faecalis; assay: Inhibition of Enterococcus faecalis recombinant type 1 methionine aminopeptidase expressed in Escherichia coli BL21 (DE3) using Met-pNA substrate by spectral study in presence of CoCl2
[5] = system: Enterococcus faecalis; assay: Inhibition of Enterococcus faecalis recombinant type 1 methionine aminopeptidase expressed in Escherichia coli BL21 (DE3) using Met-pNA substrate by spectral study in presence of Mn2+

| Compound | inhibition [1] | IC50 [2] [µM] | inhibition [3] [%] | inhibition [4] | inhibition [5] |
| --- | --- | --- | --- | --- | --- |
| O=C([O-])CC(O)(CC(=O)[O-])C(=O)[O-].[Na+].[Na+].[Na+] | inactive |  |  |  |  |
| c1cc(-c2ccncc2)ccn1 | inactive |  |  |  |  |
| c1ccc(-c2ccccn2)nc1 [DIPYRIDYL] |  | 6.67 | 75 | Active | Active |
